Target: Integrin alpha-V/beta-3 (Homo sapiens, UniProt P05106+P06756)
Experiment: Inhibition of adhesion of K562 cells expressing alphaVbeta3 integrin receptor to vitronectin
Type: cell-based

Chain of Integrin alpha-V/beta-3 (P05106 27-788 limits assumed): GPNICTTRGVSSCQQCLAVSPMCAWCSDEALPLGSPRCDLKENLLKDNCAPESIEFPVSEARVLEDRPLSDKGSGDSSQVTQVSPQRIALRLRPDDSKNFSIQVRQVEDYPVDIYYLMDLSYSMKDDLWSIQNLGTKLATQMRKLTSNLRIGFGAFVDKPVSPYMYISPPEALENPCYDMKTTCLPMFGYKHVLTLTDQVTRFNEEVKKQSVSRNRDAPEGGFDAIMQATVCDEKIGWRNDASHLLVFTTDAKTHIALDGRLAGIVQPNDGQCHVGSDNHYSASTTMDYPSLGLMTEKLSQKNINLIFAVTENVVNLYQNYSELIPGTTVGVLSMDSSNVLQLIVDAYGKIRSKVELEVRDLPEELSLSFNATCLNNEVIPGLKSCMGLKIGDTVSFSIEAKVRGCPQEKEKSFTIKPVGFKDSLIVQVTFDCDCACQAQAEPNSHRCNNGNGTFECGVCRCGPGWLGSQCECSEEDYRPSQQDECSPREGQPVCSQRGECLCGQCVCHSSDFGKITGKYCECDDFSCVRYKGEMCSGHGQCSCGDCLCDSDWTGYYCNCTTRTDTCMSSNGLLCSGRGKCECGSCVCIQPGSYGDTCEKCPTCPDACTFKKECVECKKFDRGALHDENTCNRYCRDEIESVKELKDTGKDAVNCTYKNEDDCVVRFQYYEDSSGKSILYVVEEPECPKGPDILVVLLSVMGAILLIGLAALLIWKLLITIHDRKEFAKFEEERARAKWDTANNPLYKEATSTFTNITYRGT
Chain of Integrin alpha-V/beta-3 (P06756 31-889 limits assumed): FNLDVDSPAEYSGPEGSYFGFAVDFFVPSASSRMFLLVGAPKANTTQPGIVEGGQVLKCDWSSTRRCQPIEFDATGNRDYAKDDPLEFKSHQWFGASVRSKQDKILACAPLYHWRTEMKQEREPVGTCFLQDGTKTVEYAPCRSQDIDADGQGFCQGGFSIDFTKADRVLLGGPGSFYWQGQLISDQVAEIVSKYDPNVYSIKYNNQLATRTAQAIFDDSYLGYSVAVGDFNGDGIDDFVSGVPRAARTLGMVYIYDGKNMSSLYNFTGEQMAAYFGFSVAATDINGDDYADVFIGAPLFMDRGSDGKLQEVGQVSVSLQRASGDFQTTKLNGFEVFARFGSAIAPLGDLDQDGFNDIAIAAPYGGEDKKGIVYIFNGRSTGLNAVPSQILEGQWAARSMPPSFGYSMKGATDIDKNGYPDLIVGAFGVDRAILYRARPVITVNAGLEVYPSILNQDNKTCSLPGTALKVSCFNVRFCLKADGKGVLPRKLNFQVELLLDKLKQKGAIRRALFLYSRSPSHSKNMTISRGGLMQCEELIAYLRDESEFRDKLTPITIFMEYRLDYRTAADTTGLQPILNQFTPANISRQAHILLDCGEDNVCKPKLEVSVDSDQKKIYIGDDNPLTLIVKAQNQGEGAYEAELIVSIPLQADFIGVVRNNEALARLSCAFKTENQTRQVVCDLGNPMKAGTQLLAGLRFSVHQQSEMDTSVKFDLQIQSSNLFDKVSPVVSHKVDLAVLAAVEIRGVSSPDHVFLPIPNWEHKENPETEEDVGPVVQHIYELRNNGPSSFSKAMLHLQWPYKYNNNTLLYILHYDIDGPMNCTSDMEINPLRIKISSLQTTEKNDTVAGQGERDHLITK
Chain of Integrin alpha-V/beta-3 (P06756 891-1048 limits assumed): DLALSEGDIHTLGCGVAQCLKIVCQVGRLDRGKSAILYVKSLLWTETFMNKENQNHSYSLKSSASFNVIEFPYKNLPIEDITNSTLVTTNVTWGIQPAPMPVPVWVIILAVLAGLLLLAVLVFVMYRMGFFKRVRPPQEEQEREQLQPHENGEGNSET

CSCC[C@H](NC(=O)CC[C@H]1NC(=O)[C@H](CC(=O)O)NC(=O)CNC(=O)[C@H](CCCN=C(N)N)NC(=O)[C@H](CCCCN)NC1=O)C(=O)N[C@@H](CC(=O)O)C(=O)N[C@@H](CC(=O)O)C(=O)N1CCC[C@H]1C(=O)NCC(=O)/N=C(\N)NCCC[C@H](N)C(=O)N[C@@H](CC(N)=O)C(=O)N1CCC[C@H]1C(=O)N[C@@H](Cc1c[nH]cn1)C(=O)N[C@@H](CCCCN)C(=O)NCC(=O)N1CCC[C@H]1C(=O)N[C@@H](C)C(=O)N[C@H](C(=O)O)[C@@H](C)O
IC50: 880 nM

From ChEMBL document CHEMBL1148524, “Novel and selective alpha(v)beta3 receptor peptide antagonist: design, synthesis, and biological behavior” (J Med Chem, 2006)
